# How the values were obtained:
# [1] = target: T1, CYP2B1 (Rattus norvegicus, UniProt P00176); test: Microsomal incubation (cocktail) assay, rat liver microsomes; format: in vitro ADME; conditions: 100 μM C1632, probe 10 μM bupropion, 30 min, 37°C
# T1 construct: 3.4 mg/ml pooled rat liver microsomes; from tissue; host or cells: pooled rat liver microsomes
# T1 sequence (P00176 1-491): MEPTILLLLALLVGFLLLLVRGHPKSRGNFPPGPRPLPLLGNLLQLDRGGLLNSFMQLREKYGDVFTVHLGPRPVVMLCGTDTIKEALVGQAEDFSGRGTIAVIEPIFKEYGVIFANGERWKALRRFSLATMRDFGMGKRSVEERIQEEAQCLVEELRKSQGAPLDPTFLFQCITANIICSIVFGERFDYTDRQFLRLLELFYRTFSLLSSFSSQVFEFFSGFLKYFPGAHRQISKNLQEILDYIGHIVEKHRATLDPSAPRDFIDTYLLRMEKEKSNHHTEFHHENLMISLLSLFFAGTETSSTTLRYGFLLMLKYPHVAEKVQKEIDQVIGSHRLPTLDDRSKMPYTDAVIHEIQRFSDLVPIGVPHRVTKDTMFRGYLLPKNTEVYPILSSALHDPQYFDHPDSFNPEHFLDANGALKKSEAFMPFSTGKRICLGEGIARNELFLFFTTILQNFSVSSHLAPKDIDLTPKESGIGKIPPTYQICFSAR
# Protocol: (§1) The microsomal incubation assay[41] was performed at 37°C in a 200 μl incubation system, which consisted of 3.4 mg/ml pooled rat liver microsomes, 100 μM C1632, and probe substrates (5 μM CYP3A2‐midazolam; 10 μM CYP2D1‐dextromethorphan; 250 μM CYP2C11‐tolbutamide; 10 μM CYP2B1‐bupropion; and 0.1 M Tris–HCl [pH 7.4]). After 5 min of incubation, 1 mM NADPH was added, and the assay was terminated after 30 min by cooling at −80°C. Next, 0.2 ml acetonitrile and 20 μl IS (100 ng/ml) were added to the reactant. Finally, the solution was thoroughly vortexed and centrifuged at 12,000 rpm for 10 min. The supernatant was analysed by UHPLC‐MS/MS.[42]
# [2] = target: T2, CYP2C11 (Rattus norvegicus, UniProt P08683); test: as above; format: in vitro ADME; conditions: 100 μM C1632, probe 250 μM tolbutamide, 30 min, 37°C
# T2 construct: 3.4 mg/ml pooled rat liver microsomes; from tissue; host or cells: pooled rat liver microsomes
# T2 sequence (P08683 1-500): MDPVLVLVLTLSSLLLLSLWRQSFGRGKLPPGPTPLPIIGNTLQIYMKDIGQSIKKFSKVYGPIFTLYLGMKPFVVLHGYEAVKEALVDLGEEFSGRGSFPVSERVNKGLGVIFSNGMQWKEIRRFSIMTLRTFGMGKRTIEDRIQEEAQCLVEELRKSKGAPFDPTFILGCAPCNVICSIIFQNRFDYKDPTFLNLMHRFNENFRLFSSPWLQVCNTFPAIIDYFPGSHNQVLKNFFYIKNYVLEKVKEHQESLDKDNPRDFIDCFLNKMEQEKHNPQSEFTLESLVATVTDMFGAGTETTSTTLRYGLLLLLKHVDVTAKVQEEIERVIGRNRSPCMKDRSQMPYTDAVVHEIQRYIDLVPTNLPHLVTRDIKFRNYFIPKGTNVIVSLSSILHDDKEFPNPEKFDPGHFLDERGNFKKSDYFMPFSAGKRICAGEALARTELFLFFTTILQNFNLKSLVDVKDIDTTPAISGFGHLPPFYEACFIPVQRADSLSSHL
# Protocol: as §1
# [3] = target: T3, CYP2D1 (Rattus norvegicus, UniProt P10633); test: as above; format: in vitro ADME; conditions: 100 μM C1632, probe 10 μM dextromethorphan, 30 min, 37°C
# T3 construct: 3.4 mg/ml pooled rat liver microsomes; from tissue; host or cells: pooled rat liver microsomes
# T3 sequence (P10633 1-504): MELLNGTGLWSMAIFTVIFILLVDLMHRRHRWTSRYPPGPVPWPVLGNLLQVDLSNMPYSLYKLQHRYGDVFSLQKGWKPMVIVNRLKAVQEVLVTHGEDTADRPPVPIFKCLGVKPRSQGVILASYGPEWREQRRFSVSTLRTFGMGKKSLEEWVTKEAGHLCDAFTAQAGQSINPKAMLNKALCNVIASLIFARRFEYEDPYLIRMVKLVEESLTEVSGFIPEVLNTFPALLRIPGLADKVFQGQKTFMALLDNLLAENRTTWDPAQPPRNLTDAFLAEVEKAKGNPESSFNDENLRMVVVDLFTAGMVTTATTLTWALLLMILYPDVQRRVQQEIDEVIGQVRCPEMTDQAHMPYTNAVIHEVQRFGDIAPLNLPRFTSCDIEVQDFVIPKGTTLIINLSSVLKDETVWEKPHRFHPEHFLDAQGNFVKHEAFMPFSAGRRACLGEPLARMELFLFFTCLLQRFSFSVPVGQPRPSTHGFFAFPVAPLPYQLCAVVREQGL
# Protocol: as §1
# [4] = target: T4, CYP3A2 (Rattus norvegicus, UniProt P05183); test: as above; format: in vitro ADME; conditions: 100 μM C1632, probe 5 μM midazolam, 30 min, 37°C
# T4 construct: 3.4 mg/ml pooled rat liver microsomes; from tissue; host or cells: pooled rat liver microsomes
# T4 sequence (P05183 1-504): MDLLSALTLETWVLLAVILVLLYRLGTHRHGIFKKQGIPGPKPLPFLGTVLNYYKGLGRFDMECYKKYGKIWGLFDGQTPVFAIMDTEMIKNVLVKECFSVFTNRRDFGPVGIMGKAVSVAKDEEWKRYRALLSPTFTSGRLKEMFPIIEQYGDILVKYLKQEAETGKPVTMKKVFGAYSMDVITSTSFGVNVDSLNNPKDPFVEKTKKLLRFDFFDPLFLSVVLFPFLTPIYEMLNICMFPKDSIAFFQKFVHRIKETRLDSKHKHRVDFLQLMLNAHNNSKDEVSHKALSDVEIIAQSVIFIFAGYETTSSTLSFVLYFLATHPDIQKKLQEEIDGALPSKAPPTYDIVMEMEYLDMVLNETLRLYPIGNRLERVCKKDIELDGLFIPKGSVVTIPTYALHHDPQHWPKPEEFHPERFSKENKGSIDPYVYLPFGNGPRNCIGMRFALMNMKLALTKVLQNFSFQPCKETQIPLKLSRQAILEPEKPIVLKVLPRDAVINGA
# Protocol: as §1
# [5] = tested on: A549 cells; test: Cell cycle distribution analysis (flow cytometry); format: cell-based, human; conditions: A549, 15, 30 and 60 mg/L, 5 days, dose-dependent
# Protocol: (§2) Cells were cultured in the absence or presence of 15, 30, and 60 mg/L of C1632 or 0.01% DMSO for 5 days, trypsinized, washed, and stained with propidium iodide before cell cycle distribution was assessed on a flow cytometer (BD FACSCalibur, BD Biosciences).
# [6] = tested on: A549R cells; test: Cell cycle distribution analysis (flow cytometry); format: cell-based, human; conditions: A549R, 15, 30 and 60 mg/L, 5 days, dose-dependent
# Protocol: as §2
compound,measurement,setting,value
CC(=O)N(C)c1cccc(-c2ccc3nnc(C)n3n2)c1 [C1632],effect on CYP2B1 activity,[1],significantly inhibit
same,effect on CYP2C11 activity,[2],significantly inhibit
same,effect on CYP2D1 activity,[3],significantly inhibit
same,effect on CYP3A2 activity,[4],significantly inhibit
same,cell cycle distribution,[5],arrested A549 and A549R cells at the G0/G1 phase
same,cell cycle distribution,[6],arrested A549 and A549R cells at the G0/G1 phase
